Laboratory results taken from article PMC9971056 (JHEP Reports, 2022).

Tested on: HepG2 cells
Assay: LD50 in HepG2 cells
Type: cell-based, Human

CC1(C)CC[C@]2(C(=O)O)CC[C@]3(C)[C@H](C(=O)C=C4[C@@]5(C)C=C(C#N)C(=O)C(C)(C)[C@@H]5CC[C@]43C)[C@@H]2C1 [bardoxolone]
LD50 in HepG2 cells: < 1 µM
